What was measured:
[1] = Light stability in MCT oil (HPLC % area); assay type: physicochemical; settings: for Purity after 1 h (%) / MK7 content in the sample after 1 h: light exposure 1 h; for Purity after 1 d (%) / MK7 content in the sample after 1 d: light exposure 1 d; for Purity after 3 d (%) / MK7 content in the sample after 3 d: light exposure 3 d; for MK7 content in the sample after 3 d: in %
Protocol: The light stability of MK-7 was compared certain example compounds as hereinbefore described. Compounds were dissolved separately in ethyl acetate or MCT oil, transferred to glass vial (clear glass) and placed on the bench in a well lit laboratory (ordinary room lighting). […]
(§1) The samples were analyzed by HPLC using aHPLC_KB_001, with the HPLC conditions detailed below.
(§2) HPLC-DAD high pressure system: Agilent, LC system 1100 series
(§3) Analytical column: Supelcosil C-18, 4.6×250 mm, 5 µm
(§4) Column temperature: 40° C.
(§5) Eluent system: 50% Solvent C: MeOH/Water with 0.1% v/v acetic acid (95/5 v/v) 50% Solvent D: Isopropanol
(§6) The content of MK-7 and the MK-7 derivative in the samples have been quantified as % area of the total peak area in the chromatogram.

[2] = Light stability in ethyl acetate (HPLC % area); assay type: physicochemical; settings: for After 19 hrs % (content as % area of the total peak area) / Initial % (content as % area of the total peak area) / MK-7 content in the sample after 19 hrs: in ethyl acetate; for After 19 hrs % (content as % area of the total peak area): after 19 hrs of light exposure (ordinary room lighting); for Initial % (content as % area of the total peak area): clear glass vial, initial time point; for light stability compared with the diacetylated compound: light exposure, comparison in words; for MK-7 content in the sample after 19 hrs: after 19 hrs of light exposure, MK-7 formed from the derivative
Protocol: The light stability of MK-7 was compared certain example compounds as hereinbefore described. Compounds were dissolved separately in ethyl acetate or MCT oil, transferred to glass vial (clear glass) and placed on the bench in a well lit laboratory (ordinary room lighting). The samples were analyzed after 19 hours of light exposure or more.
as §1, §2, §3, §4, §5, §6

[3] = Rat study: MK-7 in plasma after oral gavage in sunflower oil; assay type: in vivo, male Sprague Dawley Rats; settings: rats
Protocol: Brief Procedure: Rats: Male Rats aged 6 to 8 weeks and weighing around 180 to 225 g. Animals were fasted overnight with free access to water. Animals were administered test substance by oral gavage with a dose of 100 μg/kg body weight (in recommended formulation and dose volume). Blood samples (150-200 μl) were collected at various time points during the next 48 hours post dose. To determine the bioavailability of different formulations containing MK-7 in male e Sprague Dawley Rats through gavage. Formulations were both dissolved in sunflower oil. Approximately 0.4 ml/animal (depending on the weight of the animal) via oral gavage (100 μg/kg body weight). There were 6 animals per formulation. Blood samples were collected from the tail vein of each animal and transferred into lithium heparin tubes at 2 and 12 hours post dose. Quantification of analyte in plasma was determined by LC-MS-MS analysis: Analyte: MK-7 in plasma. The data are mean of four measurements (low and high values are not included).

Row | Compound | After 19 hrs % (content as % area of the total peak area) [2] | Initial % (content as % area of the total peak area) [2] | degradation after light exposure ([2]; in solution, after 19 hours of light exposure (below Table 1, ethyl acetate)) | degradation after light exposure ([1]; after 24 hours of light exposure) | MK-7 content in the sample after 19 hrs [2] | MK7 content in the sample after 1 h [1] | MK7 content in the sample after 1 d [1] | MK7 content in the sample after 3 d [1] | MK7 content in the sample at start ([1]; start) | Purity after 1 h (%) [1] | Purity after 1 d (%) [1] | Purity after 3 d (%) [1] | Start purity from CoA (%) ([1]; start) | light stability compared with the diacetylated compound [2] | serum level 12 hours after administration compared with MK-7 (in words) [3]
1 | CCC(=O)Oc1c(C/C=C(\C)CC/C=C(\C)CC/C=C(\C)CC/C=C(\C)CC/C=C(\C)CC/C=C(\C)CCC=C(C)C)c(C)c(OC(=O)[C@@H](NC(=O)OC(C)(C)C)C(C)C)c2ccccc12 [Example 10, 3-((2E,6E,10E,14E,18E,22E)-3,7,11,15,19,23,27-heptamethyloctacosa-2,6,10,14,18,22,26-heptaen-1-yl)-2-methyl-4-(propionyloxy)naphthalen-1-yl (tert-butoxycarbonyl)-L-valinate] | – | – | – | – | – | – | – | – | – | 92.7% | 92.0% | 89.0% | 93.5% | – | –
2 | CC(C)=CCC/C(C)=C/CC/C(C)=C/CC/C(C)=C/CC/C(C)=C/CC/C(C)=C/CC/C(C)=C/Cc1c(C)c(OC(=O)c2ccccc2)c2ccccc2c1OC(=O)c1ccccc1 [Example 1, 2-((2E,6E,10E,14E,18E,22E)-3,7,11,15,19,23,27-heptamethyl-octacosa-2,6,10,14,18,22,26-heptaen-1-yl)-3-methylnaphthalene-1,4-diyl dibenzoate] | 95.4% | 98.5% | – | – | – | – | – | – | – | 98.3% | 97.3% | 92.9% | 98.5% | more stable than the diacetylated compound | –
3 | CC(C)=CCC/C(C)=C/CC/C(C)=C/CC/C(C)=C/CC/C(C)=C/CC/C(C)=C/CC/C(C)=C/Cc1c(C)c(OC(=O)c2ccc(C(F)(F)F)cc2)c2ccccc2c1OC(=O)c1ccc(C(F)(F)F)cc1 [Example 13, 2-((2E,6E,10E,14E,18E,22E)-3,7,11,15,19,23,27-heptamethyloctacosa-2,6,10,14,18,22,26-heptaen-1-yl)-3-methylnaphthalene-1,4-diyl bis(4-(trifluoromethyl)benzoate)] | – | – | – | – | – | – | – | – | – | 83.6% | 84.8% | 79.6% | 90.2% | – | –
4 | CCC(=O)Oc1c(C)c(C/C=C(\C)CC/C=C(\C)CC/C=C(\C)CC/C=C(\C)CC/C=C(\C)CC/C=C(\C)CCC=C(C)C)c(OC(=O)CC)c2ccccc12 [Example 7, 2-((2E,6E,10E,14E,18E,22E)-3,7,11,15,19,23,27-heptamethyloctacosa-2,6,10,14,18,22,26-heptaen-1-yl)-3-methylnaphthalene-1,4-diyl dipropionate] | 97.7% | 98.5% | – | – | – | – | – | – | – | 98.0% | 96.7% | 93.8% | 98.5% | more stable than the diacetylated compound | the same
5 | CCOP(=O)(OCC)Oc1c(C)c(C/C=C(\C)CC/C=C(\C)CC/C=C(\C)CC/C=C(\C)CC/C=C(\C)CC/C=C(\C)CCC=C(C)C)c(OC(=O)CC)c2ccccc12 [Example 9, 4-((diethoxyphosphoryl)oxy)-2-((2E,6E,10E,14E,18E,22E)-3,7,11,15,19,23,27-heptamethyloctacosa-2,6,10,14,18,22,26-heptaen-1-yl)-3-methylnaphthalen-1-yl propionate] | – | – | – | – | – | – | – | – | – | 90.1% | 89.0% | 84.2% | 90.7% | – | –
6 | CCC(=O)Oc1c(C/C=C(\C)CC/C=C(\C)CC/C=C(\C)CC/C=C(\C)CC/C=C(\C)CC/C=C(\C)CCC=C(C)C)c(C)c(OC(=O)CCNC(=O)OC(C)(C)C)c2ccccc12 [Example 12, 3-((2E,6E,10E,14E,18E,22E)-3,7,11,15,19,23,27-heptamethyloctacosa-2,6,10,14,18,22,26-heptaen-1-yl)-2-methyl-4-(propionyloxy)naphthalen-1-yl 3-((tert-butoxycarbonyl)amino)propanoate] | – | – | – | – | – | – | – | – | – | 91.9% | 89.4% | 84.4% | 92% | – | –
7 | CCOP(=O)(OC/C=C(\C)CC/C=C(\C)CC/C=C(\C)CC/C=C(\C)CC/C=C(\C)CC/C=C(\C)CCC=C(C)C)Oc1c(CC)c(C)c(OC(=O)c2ccccc2)c2ccccc12 (stereo not shown) [Example 4, 4-((ethoxy(((2E,6E,10E,14E,18E,22E)-3,7,11,15,19,23,27-heptamethyl-octacosa-2,6,10,14,18,22,26-heptaen-1-yl)oxy)phosphoryl)oxy)-3-ethyl-2-methylnaphthalen-1-yl benzoate] | – | – | – | – | – | – | – | – | – | 86.4% | 84.4% | 81.5% | 86.7% | – | –

Second part, led by results:

Row | After 19 hrs % (content as % area of the total peak area) [2] | Initial % (content as % area of the total peak area) [2] | degradation after light exposure ([2]; in solution, after 19 hours of light exposure (below Table 1, ethyl acetate)) | degradation after light exposure ([1]; after 24 hours of light exposure) | MK-7 content in the sample after 19 hrs [2] | MK7 content in the sample after 1 h [1] | MK7 content in the sample after 1 d [1] | MK7 content in the sample after 3 d [1] | MK7 content in the sample at start ([1]; start) | Compound | Purity after 1 h (%) [1] | Purity after 1 d (%) [1] | Purity after 3 d (%) [1] | Start purity from CoA (%) ([1]; start) | light stability compared with the diacetylated compound [2] | serum level 12 hours after administration compared with MK-7 (in words) [3]
8 | 53.7% | 99.4% | approximately 50% | approximately 70% | – | – | – | – | – | CC(C)=CCC/C(C)=C/CC/C(C)=C/CC/C(C)=C/CC/C(C)=C/CC/C(C)=C/CC/C(C)=C/CC1=C(C)C(=O)c2ccccc2C1=O [MK-7, 2-((2E,6E,10E,14E,18E,22E)-3,7,11,15,19,23,27-heptamethyloctacosa-2,6,10,14,18,22,26-heptaen-1-yl)-3-methylnaphthalene-1,4-dione, reference compound] | 97.2% | 73.5% | 32.2% | 99% | – | –
9 | 87.6% | 91.5% | – | – | 2.8% | 2.7% | 4.1% | 5.6 | – | CC(C)=CCC/C(C)=C/CC/C(C)=C/CC/C(C)=C/CC/C(C)=C/CC/C(C)=C/CC/C(C)=C/Cc1c(C)c(OC(=O)c2ccccc2)c2ccccc2c1O [Example 2B, 3-((2E,6E,10E,14E,18E,22E)-3,7,11,15,19,23,27-heptamethyloctacosa-2,6,10,14,18,22,26-heptaen-1-yl)-4-hydroxy-2-methylnaphthalen-1-yl benzoate] | 91.9% | 84.6% | 63.8% | 91.5% | – | –
10 | 71.2% | 93.3% | – | – | 23.4% | 13.1% | 18.0% | 23.65 | 4% | CC(C)=CCC/C(C)=C/CC/C(C)=C/CC/C(C)=C/CC/C(C)=C/CC/C(C)=C/CC/C(C)=C/Cc1c(C)c(O)c2ccccc2c1OC(=O)c1ccccc1 [Example 2A, 2-((2E,6E,10E,14E,18E,22E)-3,7,11,15,19,23,27-heptamethyloctacosa-2,6,10,14,18,22,26-heptaen-1-yl)-4-hydroxy-3-methylnaphthalen-1-yl benzoate] | 83.9% | 72.5% | 53.3% | 93.3% | – | –

— patent publication US10159687B2, “Prodrugs of vitamin K” (KAPPA BIOSCIENCE AS, priority 2012, dated 2018)
